Experimental findings from patent US6342501B1, “Pyrrolo[2,3-d] pyrimidines as antiviral agents” (The Regents of the University of Michigan, priority 1994, dated 2002) are described below.

The structures appear in SMILES notation. Like-named read-outs stand apart in the source and are kept apart here.

Test [1] deals with herpes simplex virus type 1 (HSV-1). The test is described as follows: HSV-1 ELISA in BSC-1 cells. The test is classed as cell-based, KOS strain. The conditions noted are these: read-out: HSV-1. Here is the method:
(§1) The routine growth and passage of KB and BSC-1 cells was performed in monolayer cultures using minimal essential medium (MEM) with either Hanks salts [MEM(H)] or Earle salts [MEM(E)] supplemented with 10% calf serum. The sodium bicarbonate concentration was varied to meet the buffering capacity required. Cultures of diploid human foreskin fibroblast (HFF) or MRC-5 cells were grown in medium consisting of MEM(E) with 10% fetal bovine serum. Cells were passaged at 1:2 to 1:10 dilutions according to conventional procedures by using 0.05% trypsin plus 0.02% EDTA in a HEPES buffered salt solution (HBS) [Shipman, C., Jr., Proc. Soc. […] HFF and MRC-5 cells were passaged only at 1:2 dilutions. The Towne strain, plaque-purified isolate Po, of HCMV was kindly provided by Dr. Mark Stinski, University of Iowa. The KOS strain of HSV-1 was used in most experiments and was provided by Dr. Sandra K. Weller, University of Conn.
High titer HSV-1 stocks were prepared by infecting BSC cells at an m.o.i. of <0.1 as detailed previously [Turk, S. R., et al., Antimicrob.
Ninety-six-well cluster dishes were planted with 10,000 BSC-1 cells per well in 200 μL per well of MEM(E) plus 10% calf serum. After overnight incubation at 37° C., selected drug concentrations in quadruplicate and HSV-1 at a concentration of 100 p.f.u./well were added. Following a 3-day incubation at 37° C., medium was removed, plates were blocked, rinsed, and horse radish peroxidase conjugated rabbit anti-HSV-1 antibody was added. Following removal of the antibody containing solution, plates were rinsed, and then developed by adding 150 μL per well of a solution of tetramethylbenzidine as substrate. The reaction was stopped with H2SO4 and absorbance was read at 450 and 570 nm. Drug effects were calculated as a percentage of the reduction in absorbance in the presence of each drug concentration compared to absorbance obtained with virus in the absence of drug.
(§2) Dose-response relationships were constructed by linearly regressing the percent inhibition of parameters derived in the preceding sections against logarithm 10 drug concentrations. […] Samples containing positive controls (acyclovir for HSV-1 and ganciclovir for HCMV) were used in all assays.

Test [2] concerns KB cells. The experiment in a line: Cytotoxicity: KB cell growth (crystal violet staining). The test is classed as cell-based. The conditions noted are these: Homo sapiens, read-out: KBgrv. Here is the method:
(§3) Two different assays were used to explore cytotoxicity of selected compounds: (i) Cytotoxicity produced in stationary HFF cells was determined by microscopic inspection of cells used in plaque assays which were not affected by the virus [Turk, S. R., et al, Antimicrob.
Briefly, 96-well cluster dishes were planted with KB cells at 3000-5000 cells per well. After overnight incubation at 37° C., test compound was added in quadruplicate at six to eight concentrations. Plates were incubated at 37° C for 48 hours in a CO2 incubator, rinsed, fixed with 95% ethanol, and stained with 0.1% crystal violet. Acidified ethanol was added and plates read at 570 nm in a spectrophotometer designed to read 96-well ELISA assay plates.
as §2

Test [3] has as its system human cytomegalovirus (HCMV). The test is described as follows: microbe, parasite or virus in culture. In kind it is cell-based, Towne strain. To be noted: for IC50: Human betaherpesvirus 5, HFF, read-out: HCMV; for antiviral activity against HCMV (in words): comment on Table 1 data. Here is the method: as §1
Stock HCMV was prepared by infecting HFF cells at a multiplicity of infection (m.o.i.) of <0.01 plaque-forming units (p.f.u.) per cell. Cell growth medium was changed every four days until cytopathology was evident in all cells (approximately 21 days). Supernatant fluids were retained as the virus stock.
Virus titers were determined using monolayer cultures of HFF cells for HCMV and monolayer cultures of BSC-1 cells for HSV-1 as described earlier [Prichard, M. N., et al., J. Virol. […] Briefly, HFF or BSC-1 cells were planted as described above in 96-well cluster dishes and incubated overnight at 37. degree. C. in a humidified 3% C02 -97% air atmosphere. The next day cultures were inoculated with HCMV or HSV-1 and serially diluted 1:3 across the remaining eleven columns of the 96-well plate. Cultures were incubated at 37. degree. C. for 2 hr to permit virus adsorption and then virus inoculum was replaced with 0.2 ml of fresh medium. Cultures were incubated for seven days for HCMV, two or three days for HSV-1, the medium was removed, and the cell sheets were stained with 0.1% crystal violet in 20% methanol.
HFF cells in 24-well cluster dishes were infected with approximately 100 p.f.u. of HCMV per cm^2 cell sheet using the procedures detailed above. Following virus adsorption, compounds dissolved in growth medium were added to duplicate wells in four to eight selected concentrations. After incubation at 37° C. for 7 to 10 days, cell sheets were fixed, stained with crystal violet and microscopic plaques enumerated as described above.
After virus adsorption, inoculum was replaced with 0.2 mL of fresh medium containing test compounds. The first row of 12 wells was left undisturbed and served as virus controls. Each well in the second row received an additional 0.1 mL of medium with test compound at three times the desired final concentration. The contents of the 12 wells were mixed by repeated pipetting and then serially diluted 1:3 along the remaining wells. In this manner, six compounds could be tested in duplicate on a single plate with concentrations from […]. Plates were incubated at 37° C. for seven days, subjected to one cycle of freezing and thawing; aliquots from each of the eight wells of a given column were transferred to the first column of a fresh 96-well monolayer culture of HFF cells. Contents were mixed and serially diluted 1:3 across the remaining eleven columns of the secondary plate. Each column of the original primary plate was diluted across a separate plate in this manner. Cultures were incubated, plaques were enumerated, and titers calculated as described above.
as §2

The test system of test [4] is human foreskin fibroblasts (HFF cells). The experiment in a line: Cytotoxicity in stationary HFF cells (microscopic inspection of plaque assay cells). The test is classed as cell-based. To be noted: read-out: HFF. The protocol:
as §3, §2

Where [5] appears, read: Human alphaherpesvirus 1, BSC-1, 72 h.
[6] abbreviates: Human alphaherpesvirus 1, 72 h, Table 1, fifty-percent inhibitory concentration, ELISA, BSC-1 cells, 3-day incubation.
The mark [7] stands for this setting: Table 1, cytotoxicity, KB cell growth, 48 hours.
Setting [8] is: Table 1, cytotoxicity, stationary HFF cells, visual.

With `Cc1ccccc1Cn1cc(C(N)=O)c2c(N)ncnc21` [Compound 636, 4-amino-7-(2-methylbenzyl)-pyrrolo[2,3-d]pyrimidine-5-carboxamide], the IC50 in test [1] (setting [5]) was more than 100 µM; in test [2] (KB, 48 h), not below 222 µM; in test [3], 14.5 µM; in test [4] (HFF) it was 100 µM.

On to `Cc1ccc(Cn2cc(C(N)=O)c3c(N)ncnc32)cc1` [Compound 658, 4-amino-7-(4-methylbenzyl)-pyrrolo [2,3-d]pyrimidine-5-carboxamide], for which the IC50 in test [1] (setting [5]) was more than 100 µM; in test [2] (KB, 48 h) it was not below 222 µM; in test [3], 181 µM; in test [4] (HFF), 141 µM.

For `NC(=O)c1cn(Cc2ccccc2)c2ncnc(N)c12` [Compound 659, 4-amino-7-benzyl-pyrrolo[2,3-d]pyrimidine-5-carboxamide], the IC50 amounted to 32.6 µM in test [1] (setting [5]); 75 µM in test [2] (KB, 48 h); 171 µM in test [3]; 118 µM in test [4] (HFF).

Turning to `Cc1cccc(Cn2cc(C(N)=O)c3c(N)ncnc32)c1` [Compound 826, 4-amino-7-(3-methylbenzyl)-pyrrolo[2,3-d]pyrimidine-5-carboxamide], the IC50 was more than 100 µM in test [1] (setting [5]); not below 222 µM in test [2] (KB, 48 h); not below 222 µM in test [3]; not below 222 µM in test [4] (HFF).

In the case of `COc1ccc(Cn2cc(C(N)=O)c3c(N)ncnc32)cc1` [Compound 839, 4-amino-7-(4-methoxybenzyl)-pyrrolo[2,3-d]pyrimidine-5-carboxamide], the IC50 in test [1] (setting [5]) was 35 µM; in test [2] (KB, 48 h), 47 µM; in test [3], 13 µM; in test [4] (HFF) it was 127 µM. Further, the “antiviral activity against HCMV (in words)” value (“antiviral activity” below) in test [3] is reported as “good to excellent antiviral activity”.

Regarding `CC(C)(C)c1ccc(Cn2cc(C(N)=O)c3c(N)ncnc32)cc1` [Compound 845, 4-amino-7-(4-t-butylbenzyl)-pyrrolo[2,3-d]pyrimidine-5-carboxamide], the IC50 turned out to be 50 µM in test [1] (setting [5]); 1 µM in test [2] (KB, 48 h); 28 µM in test [3]; 100 µM in test [4] (HFF).

Turning to `N#Cc1c(N)n(CC=Cc2ccccc2)c2ncnc(N)c12` [Compound 1329, 4,6-diamino-7-(3-phenyl)prop-2-enyl-pyrrolo[2,3-d]pyrimidine-5-carbonitrile], the IC50 in test [1] (setting [6]) was found to be 40 µM; in test [2] (setting [7]), 33 µM; in test [3], 19 µM; in test [4] (setting [8]), 46 µM.

As for `N#Cc1c(Br)n(Cc2ccc([N+](=O)[O-])cc2)c2ncnc(N)c12` [Compound 1331, 4-amino-6-bromo-7-(4-nitrobenzyl)-pyrrolo[2,3-d]pyrimidine-5-carbonitrile], the IC50 in test [1] (setting [6]) is more than 100 µM; in test [2] (setting [7]), more than 100 µM; in test [3] it was more than 10 µM; in test [4] (setting [8]), more than 10 µM.

As for `N#Cc1c(Br)n(CCCc2ccccc2)c2ncnc(N)c12` [Compound 1347, 4-amino-6-bromo-7-(3-phenyl)propyl-pyrrolo[2,3-d]pyrimidine-5-carbonitrile], the IC50 in test [1] (setting [6]) was not below 222 µM; in test [2] (setting [7]) it was more than 100 µM; in test [3], more than 10 µM; in test [4] (setting [8]) it was more than 10 µM.

Take `N#Cc1c(N)n(Cc2ccc([N+](=O)[O-])cc2)c2ncnc(N)c12` [Compound 1348, 4,6-diamino-7-(4-nitrobenzyl)-pyrrolo[2,3-d]pyrimidine-5-carbonitrile]: the IC50 in test [1] (setting [6]) is 156 µM; in test [2] (setting [7]), more than 100 µM; in test [3], 0.6 µM; in test [4] (setting [8]), more than 10 µM. Also, in test [3], the “antiviral activity” value is given as “good to excellent antiviral activity”.

As to `N#Cc1c(N)n(CCCc2ccccc2)c2ncnc(N)c12` [Compound 1350, 4,6-diamino-7-(3-phenyl)propyl-pyrrolo[2,3-d]pyrimidine-5-carbonitrile], the IC50 in test [1] (setting [6]) was 121 µM; in test [2] (setting [7]), 50 µM; in test [3] it was 5 µM; in test [4] (setting [8]), more than 100 µM. In addition, in test [3], the “antiviral activity” value was “excellent activity”.

For `N#Cc1c(Br)n(CCc2ccccc2)c2ncnc(N)c12` [Compound 1351, 4-amino-6-bromo-7-(2-phenyl)ethyl-pyrrolo[2,3-d]pyrimidine-5-carbonitrile], the IC50 in test [1] (setting [6]) was not below 222 µM; in test [2] (setting [7]), more than 100 µM; in test [3] it was 1 µM; in test [4] (setting [8]) it was more than 100 µM. The “antiviral activity” value in test [3] is “excellent activity”.

On to `N#Cc1c(N)n(Cc2ccc(N)cc2)c2ncnc(N)c12` [Compound 1352, 4,6-diamino-7-(4-aminobenzyl)-pyrrolo[2,3-d]pyrimidine-5-carbonitrile], for which the IC50 is 100 µM in test [1] (setting [6]), 146 µM in test [2] (setting [7]), more than 100 µM in test [3] and more than 100 µM in test [4] (setting [8]). Besides, in test [3], the “antiviral activity” value was “good to excellent antiviral activity”.

Turning to `N#Cc1c(Br)n(Cc2ccc(F)cc2)c2ncnc(N)c12` [Compound 1353, 4-amino-6-bromo-7-(4-flurobenzyl)-pyrrolo[2,3-d]pyrimidine-5-carbonitrile], the IC50 is 60 µM in test [1] (setting [6]), more than 100 µM in test [2] (setting [7]), 1.4 µM in test [3] and 116 µM in test [4] (setting [8]).

As to `N#Cc1c(N)n(Cc2ccc(Cl)cc2)c2ncnc(N)c12` [Compound 1356, 4,6-diamino-7-(4-chlorobenzyl)-pyrrolo[2,3-d]pyrimidine-5-carbonitrile], the IC50 in test [1] (setting [6]) is 17 µM; in test [2] (setting [7]), 76 µM; in test [3], 0.2 µM; in test [4] (setting [8]), 46 µM. Also, the “antiviral activity” value in test [3] is on record as “good to excellent antiviral activity”.

On to `N#Cc1cn(Cc2ccc([N+](=O)[O-])cc2)c2ncnc(N)c12` [Compound 1360, 4-amino-7-(4-nitrobenzyl)-pyrrolo[2,3-d]pyrimidine-5-carbonitrile], for which the IC50 in test [1] (setting [6]) is more than 100 µM; in test [2] (setting [7]), more than 100 µM; in test [3], 1.6 µM; in test [4] (setting [8]), more than 10 µM. In addition, the “antiviral activity” value in test [3] was “good to excellent antiviral activity”.

For the molecule `CNc1ncnc2c1c(C#N)c(Br)n2CCc1ccccc1` [Compound 1463, 4-methylamino-6-bromo-7-(2-phenyl)ethyl-pyrrolo[2,3-d]pyrimidine-5-carbonitrile], the IC50 in test [3] and in test [4] (setting [8]) was more than 10 µM each time.
